Article PMC9061999, “Application of the Adverse Outcome Pathway Concept to In Vitro Nephrotoxicity Assessment: Kidney Injury due to Receptor-Mediated Endocytosis and Lysosomal Overload as a Case Study” (Frontiers in Toxicology, 2022)

Tested on: RPTEC/TERT1 cells
Assay: Cathepsin D immunofluorescence (KE2, disruption of lysosomes)
Assay type: cell-based, human
Method: For immunocytochemistry experiments, cells were seeded into 8-well chamber slides (Ibidi) at a density of 140 cells per µL in 300 µL growth medium and were allowed to grow for 48 h (NRK-52E) or 10 d (RPTEC/TERT1) respectively. For treatment, stock solutions (1,000 µM) of compounds dissolved in growth medium were freshly prepared and serial dilutions were made before exposure of cells for 24 h. After treatment, cells were washed twice with 150 µL PBS and fixed with 150 µL 4% paraformaldehyde in 1 x PBS for 10 min at room temperature. […]
After incubation with primary antibody, cells were washed three times for 15 min with 0.2% Tween in 1 x PBS (150 µL) on an orbital shaker. […] To preserve fluorescence 50–100 µL DAPI mounting medium (Vectashield®; Vectorlab, Biozol) was added to the cells and chamber slides were stored at 4°C in the dark until image acquisition.
Images were taken with a TCS SP5 II confocal microscope with an HCX PL APO lambda blue 63.0 × 1.40 OIL UV objective (Leica Microsystems, Wetzlar, GER) (n = 10 cells/treatment group). […] Before quantification, images were blinded and randomized. Quantification of fluorescence intensity was performed using NIH Image® software. […] The mean values of the pixel intensities were automatically calculated by the software and imported in Excel for further processing.

Polymyxin B
BMC10, KE2 (in vitro POD from KE dose-response, cathepsin D intensity, RPTEC/TERT1, 24 h treatment, n = 3): 6.8 µM | MOE, KE2 (margin of exposure: BMC10 in RPTEC/TERT1 vs human plasma/serum concentration (cmax or css)): 1.7 - 11.9
